The text below walks through data of patent publication US9096532B2, “Pyrazole inhibitors of COX-2 and sEH” (The Regents of the University of California, priority 2010, dated 2015).

“Also recorded” adds a separate entry of the source.

Series [1] is described as follows: Pharmacokinetics in mice by oral cassette dosing. In kind it is in vivo. Particulars: oral cassette dosing at 5 mg/kg, blood.
Protocol: All the animal experiments were performed according to protocols approved by the Animal Use and Care Committee of University of California, Davis. […] Each cassette was orally administered to 4 mice at a dose of 5 mg/kg in 120-150 μl of vehicle depending on animal weight. […] The instrument was equipped with a linear ion trap and a Turbo V ion source and was operated in negative ion MRM mode. […] This was maintained for 3 min, then the gradient was returned to 30% solvent B in 2 min. The flow rate was 0.4 mL/min. The injection volume was 10 μL and the samples were kept at 4° C. in the auto sampler.
The next series relates to Met-1 breast cancer. Description: In vivo Met-1 tumor growth. Particulars: FVB mice, 0.1 mg/kg/day by mini-pump, FIG. 16. The source says:
Cells derived from highly metastatic breast cancer Met-1 will be transplanted into the fat pads of FVB female mice. […] Over this period, animals will be checked 3 times per week with ultrasound to mark changes in tumor growth and size. Ultrasound contrast agent microbubbles will also be administered during each ultrasound session by IV injection to track changes in tumor vasculature (Invest Radiol 46, 215-224).

A further series relates to LPS induced allodynia. Description: Von Frey mechanical nociceptive assay, LPS induced model of inflammatory pain. It is filed as in vivo. Particulars: male SD rats, 10 mg/kg s.c. 60 minutes before intraplantar LPS, tested until 6 hours post LPS. On the procedure:
In vivo anti-allodynic effects of the COX-2/sEH dual inhibitors provided herein was assayed. An LPS induced model of inflammatory pain was used to compare the pain reducing activity of the COX-2/sEH dual inhibitors to combination and individual therapies.
Rats weighing approximately 250-300 grams are brought to the testing apparatus and allowed to acclimate for 30 minutes. After 30 minutes the rats are tested with a von Frey aesthesiometer for their non-treated baseline withdrawal latency to mechanical stimulation. The von Frey apparatus is a raised metal mesh platform that has clear acrylic chambers to enclose rats but allow them to move freely. A rigid tip von Frey probe is used to probe the plantar surface of the rat hind paw though the mesh floor to elicit a withdrawal response. The measures recorded are grams of force applied to the hind paw required to elicit a withdrawal. The pretreatment baseline score is considered the pain-free baseline (BL) and is assigned 100% for further response calculations. […] The measures are then calculated as a percent of the pretreatment baseline score.

Another series deals with HUVEC cells. Description: HUVEC endothelial tube formation assay. It is filed as cell-based, human. As to conditions: treated for 4-6 hours, FIG. 12. The method, then:
Endothelial tube formation assay was carried out using a slightly modified method described by Arnaoutova and Kleinman (Nat. Protocols 5, 628-635). Briefly, 96-well plates were coated with growth-factor reduced Matrigel (50 μL per well, BD Biosciences, San Jose, Calif.) at 37° C. for 30 min. HUVEC cells were seeded into the 96-well plates at 2×10^4 cells per well in 100 μL serum-free F-12K medium with or without test compounds and incubated for 6 h 37° C. in the incubator. Microscope image was recorded and analyzed by NIH Image J software.

Series [2] has as its system VEGF-induced angiogenesis. Description: In vivo angiogenesis assay (Matrigel plug). Particulars: C57BL/6 mice, n=6 per group, FIG. 15. The method, then: Male C57BL/6 mice were purchased from Charles River Lab. After acclimation for 1 wk in a standard animal facility, the animals were lightly anesthesized using 1-4% isoflurane in oxygen (2 L/min) and placed on a heated stage to maintain body temperature at 37° C. Growth-factor reduced Matrigel (0.5 mL, BD Biosciences, San Jose, Calif.) mixed with 100 ng mouse VEGF 164 (R&D Systems, Minneapolis, Minn.), 20 U heparin (APP Pharmaceuticals, Schaumburg, Ill.), with or without test compounds were subcutaneously injected into the mice at the abdominal area. Each mouse was injected with two gels (with/without test compounds) symmetrically in the abdomen. After 4-7 days, the animals were euthanized and dissected to recover the implanted Matrigel plugs. Hemoglobin contents inside the Matrigel implants were analyzed by Drabkin's reagent (Sigma-Aldrich, St. Louis, Mont.).

The test system of a further series is HepG2 cells. Description: HepG2 cell viability analysis (MTT). In kind it is cell-based. On the procedure:
Cells were plated at 10,000 cell per well in 96-well plates and allowed to attach overnight under the growth conditions described above. […] These compounds were dissolved in 100% DMSO and diluted with EMEM to the desired concentration of 0.1 μM, 1.0 μM, 10 μM, 25 μM, and 50 μM, with a final DMSO concentration of 0.1% for all cell-based in vitro studies. All studies included DMSO as a solvent control. Cell viability was determined using the MTT Cell Viability Assay Kit from ATCC according to manufacturer's instructions. The 96-well plates were measure at 570 nm using SpectroMax 190 plate reader (Molecular Devices, Sunnyvale, Calif.). […] Each concentration was performed in triplicate per 96-well plate and EC50 data are presented as the mean±standard deviation from at least 3 separate experiments performed on separate days.

Usually AUC stands for concentration integrated over time. A low value points to less exposure. As usually defined, the Cmax is the highest concentration seen after dosing. As usually defined, the Tmax is the time at which the peak concentration occurs. What is called EC50 is the concentration giving half of the maximal effect. Read a high EC50 as lower potency in that assay. For the compound `NS(=O)(=O)c1ccc(-n2nc(CCCNC(=O)Nc3ccc(C(F)(F)F)cc3)cc2-c2ccccc2)cc1` [Compound 21i, 4-(5-Phenyl-3-{3-[3-(4-trifluoromethyl-phenyl)-ureido]-propyl}-pyrazol-1-yl)-benzenesulfonamide], in series [1], the AUC is 0.98 µM·h, the Cmax stood at 260 nM, the time of peak concentration (Tmax) was 0.8 h and the t1/2 is listed as 2.6 h. Moreover, the “Primary tumor growth of Met-1 breast cancer, in words” value with Met-1 breast cancer was “inhibits primary tumor growth”. The “Anti-allodynic effect, von Frey paw withdrawal, in words” value in the series with LPS induced allodynia is “better in vivo efficacy in a pain model in rats compared to celecoxib and t-AUCB combination therapy; also recorded: superior effect compared to the combination therapies; also recorded: superior anti-allodynic activity; also recorded: more efficient than the combination of celecoxib with t-AUCB”. For the same compound, the “HUVEC tube formation, in words” value in the series on HUVEC cells was “inhibits endothelial proliferation assay of HUVEC cells”. Besides, the “VEGF-induced angiogenesis, hemoglobin content inside the Matrigel, in words” value in series [2] was “inhibits VEGF-induced angiogenesis”. The compound also came in with a 50% effective concentration (EC50) with HepG2 cells (Homo sapiens, HepG2, MTT after 24 hours of incubation) of 4.5 ± 0.5 µM. For the same compound, the “Effect on HepG2 cell viability (killing cancer cells), in words” value in the series on HepG2 cells (dose dependence, FIG. 9) is “more efficient than Celecoxib in combination or not with t-TUCB in killing the cancer cells”.
